What was measured:
[1] = test system: hepatic steatosis; assay: short-term dietary supplementation with serine in obese subjects with hepatic steatosis; format: in vivo, human
Experimental: To test the model-based predictions, the present inventors assessed the effect of short-term dietary supplementation with serine on fatty liver and fasting levels of plasma markers of liver functions in six obese subjects (BMI 32.5±2.70 kg/m2) with hepatic steatosis. Each patient received one oral dose of ˜20 g of L-serine (200 mg/kg) per day for 14 days. The supplementation was well-tolerated by all subjects.

[2] = test system: Caspase 3; assay: Alzheimer's disease study in HFD + icv STZ rats, immunofluorescence examination of brain tissues (FITC); format: in vivo, Sprague-Dawley rats; details: for Caspase-3 expression in immunofluorescence staining: HFD + STZ rats, grade in words; for Caspase 3 (IFA FITC): HFD 5 weeks + STZ 3 mg/kg icv, substances once daily by oral gavage, score
Experimental: (§1) 12 weeks old female Sprague-Dawley rats (weighing 320-380 g) were kept at a controlled temperature of 22±2° C. and a controlled humidity of 50±5% on a 12-hour light/dark cycle. Food and water were available ad libitum. The animal experiments are performed at Medical Experimental Research Center, Ataturk University, Erzurum, Turkey. All experiments for the treatment of the animals were approved by the Ethics Committee of Atatürk University, and were conducted following the National Institutes of Health Guide for Care and Use of Laboratory Animals.
(§2) After acclimation to laboratory conditions for one (1) week, rats were randomly divided into two dietary regimens receiving either a Chow diet (CD) or a high-fat diet (HFD. The animals of Group 1 (n=4) were fed with only regular CD for five (5) weeks. The animals of Group 2 (n=4) were fed with CD and treated with STZ. The remaining animals (n=4) were fed with HFD for 3 weeks and sacrificed to verify the model development (Group 3). Groups 4-13 were fed with HFD for 5 weeks. After 3 weeks, the animals in Groups 5-13 were treated with STZ and administered with individual or combined substances. The animals in Group 4 were injected (icy) with a control substance (saline) after 3 weeks.
(§3) Before surgical procedures, the rats were anesthetized by intraperitoneal administration of ketamine-xylazine (50 mg/kg ketamine and 5 mg/kg xylazine) and placed individually in the stereotaxic instrument (Stoelting, Ill., USA). Stereotaxic coordinates for injection were 0.8 mm posterior to the bregma, 1.5 mm lateral to the sagittal suture and 3.6 mm below the brain surface (Pellegrino et al. 1979). Then, 10 microliters of STZ (3 mg/kg, Sigma-Aldrich, Darmstadt, Germany) were injected over 3 min with a Hamilton micro-syringe into the bilateral ventricle. The injection needles were left in place for an additional 2 min to allow diffusion.
(§4) For carrying out the treatment experiments, the HFD rats were randomly separated into nine (9) subgroups of four (4) animals (Groups 5-13).
(§5) The body weight of the rats was recorded each week. After 5 weeks, all animals were anesthetized with isoflurane and sacrificed. Blood samples were collected from the abdominal aorta and centrifuged at 8000 rpm for 15 min at 4° C. The plasma was separated and stored at −80° C. until further analysis. Other internal organs, including the heart, adipose tissues, liver, kidney, brain, muscle, intestine (duodenum, ileum, jejunum), pancreas, colon and stomach were immediately removed and then snap-frozen in liquid nitrogen and stored at −80° C.
(§6) Tissue sections taken on adhesive (poly-L-Lysin) slides for immunoperoxidase examination were deparaffinized and […]. After washing the tissues with suppressed endogenous peroxidase activity in 3% H2O2 were boiled in antigen retrieval solution. In order to prevent nonspecific background staining in the sections, protein block compatible with all primary and secondary antibodies was dropped and incubated for 5 minutes. For brain tissues, primary antibody Caspase 3 (Cat No:sc-56053 Dilution Ratio:1/100 US) was dropped and incubated for 1 hour at 37° C. After washing, secondary FITC (Cat No: ab6717 Dilution Ratio:1/500 UK) was dropped and incubated at 37° C. for 30 minutes. The other primary antibody H2A.X (Cat No:I 0856-1 Dilution Ratio:1/100 US) was dropped and incubated at 37° C. for 1 hour. After washing, secondary Texas Red (Cat No: se-3917 Dilution Ratio:1/100 US) was dropped and incubated at 37° C. for 30 minutes. DAPI (Cat No:D-1306 Dilution Ratio:1/200 US) was dripped onto the washed tissues and incubated in the dark for 5 minutes, then glycerin was sealed.

[3] = test system: H2A.X; assay: Alzheimer's disease study in HFD + icv STZ rats, immunofluorescence examination of brain tissues (Texas Red); format: in vivo, Sprague-Dawley rats; details: for H2A.X expression in immunofluorescence staining: HFD + STZ rats, grade in words; for H2A.X (IFA Texas Red): HFD 5 weeks + STZ 3 mg/kg icv, substances once daily by oral gavage, score
Experimental: as §1, §2, §3, §4, §5, §6

[4] = test system: 8-OHdG; assay: Alzheimer's disease study in HFD + icv STZ rats, immunohistochemical examination of brain tissues; format: in vivo, Sprague-Dawley rats; details: for 8 OHdG expression in immunohistochemical staining: HFD + STZ rats, grade in words; for 8-OHdG (IHC): HFD 5 weeks + STZ 3 mg/kg icv, substances once daily by oral gavage, score
Experimental: as §1, §2, §3, §4, §5
Tissue sections taken on adhesive (poly-L-Lysin) slides for immunoperoxidase examination were deparaffinized and […]. After washing the tissues with suppressed endogenous peroxidase activity in 3% H2O2 were boiled in antigen retrieval solution. In order to prevent nonspecific background staining in the sections, protein block compatible with all primary and secondary antibodies was dropped and incubated for 5 minutes. 8-OHdG (Cat no: sc-66036 dilution ratio: 1/100 US) was used as the primary antibody for brain tissues.

[5] = test system: brain tissues; assay: Alzheimer's disease study in HFD + icv STZ rats, histopathology (HE) of brain tissues; format: in vivo, Sprague-Dawley rats
Experimental: as §1, §2, §3, §4, §5
Tissue samples obtained as a result of the experimental procedure were fixed in 10% buffered formalin solution for 48 hours. Following the routine tissue procedure, the tissues were embedded in paraffin blocks and 4 μm thick sections were taken from each block. Preparations prepared for histopathological examination were stained with hematoxylin-eosin (HE) and examined with a light microscope (Olympus BX51, Germany).

[6] = fasting plasma marker of liver function, after 14 days of ~20 g/day oral L-serine
[7] = brain tissues, HFD 5 weeks + STZ 3 mg/kg icv, substances once daily by oral gavage, score

SMILES	liver fat after supplementation ([1]; after 14 days of ~20 g/day oral L-serine, decreased significantly from 26.8±6.0% before) [%]	ALP level [1, 6]	ALT level [1, 6]	AST level [1, 6]	tolerability of the supplementation ([1]; six obese subjects, one oral dose of ~20 g L-serine (200 mg/kg) per day for 14 days)	Caspase-3 expression in immunofluorescence staining [2]	H2A.X expression in immunofluorescence staining [3]	8 OHdG expression in immunohistochemical staining [4]	degeneration in neurons ([5]; HFD + STZ rats, grade in words)	hyperemia in brain tissues ([5]; HFD + STZ rats, grade in words)	necrosis in neurons ([5]; HFD + STZ rats, grade in words)	Caspase 3 (IFA FITC) [2]	H2A.X (IFA Texas Red) [3]	8-OHdG (IHC) [4]	Hyperemia [5, 7]	degeneration in neurons [5, 7]	necrosis in neurons [5, 7]
N[C@@H](CO)C(=O)O [Group 6, serine]	20.4±7.0	significantly decreased	significantly decreased	significantly decreased	well-tolerated	moderate	moderate	moderate	moderate	Moderate	mild	–	–	–	–	–	–
NC(CO)C(=O)O (centres unmarked) [Group 6]	–	–	–	–	–	–	–	–	–	–	–	+++ (moderate (+++))	+++ (moderate (+++))	+++ (moderate (+++))	+++ (moderate (+++))	+++ (moderate (+++))	++ (mild (++))
CC(=O)N[C@@H](CS)C(=O)O [Group 7, N-acetyl-L-cysteine, reference compound]	–	–	–	–	–	moderate	moderate	moderate	severe	Severe	moderate	–	–	–	–	–	–
CC(=O)NC(CS)C(=O)O (centres unmarked) [Group 7]	–	–	–	–	–	–	–	–	–	–	–	+++ (moderate (+++))	+++ (moderate (+++))	+++ (moderate (+++))	++++ (severe (++++))	++++ (severe (++++))	+++ (moderate (+++))
C[N+](C)(C)C[C@H](O)CC(=O)[O-].O=C(O)C(O)C(O)C(=O)O [Group 8, L-carnitine tartrate, reference compound]	–	–	–	–	–	moderate	moderate	moderate	moderate	Moderate	mild	–	–	–	–	–	–
C[N+](C)(C)CC(O)CC(=O)O.C[N+](C)(C)CC(O)CC(=O)O.O=C([O-])C(O)C(O)C(=O)[O-] (centres unmarked) [Group 8]	–	–	–	–	–	–	–	–	–	–	–	+++ (moderate (+++))	+++ (moderate (+++))	+++ (moderate (+++))	+++ (moderate (+++))	+++ (moderate (+++))	++ (mild (++))
NC(=O)c1ccc[n+]([C@@H]2O[C@H](CO)[C@@H](O)[C@H]2O)c1.[Cl-] [Group 9, nicotinamide riboside chloride]	–	–	–	–	–	moderate	moderate	moderate	moderate	Moderate	mild	–	–	–	–	–	–
NC(=O)c1ccc[n+](C2OC(CO)C(O)C2O)c1.[Cl-] (centres unmarked) [Group 9]	–	–	–	–	–	–	–	–	–	–	–	+++ (moderate (+++))	+++ (moderate (+++))	+++ (moderate (+++))	+++ (moderate (+++))	+++ (moderate (+++))	++ (mild (++))

Source: patent publication US20230270704A1, “AMINOACIDS FOR TREATMENT OF NEUROLOGICAL DISORDERS” (ScandiBio Therapeutics AB, priority 2020, published 2023)
